Source: US11203613B2, “Peptidomimetic proteasome inhibitors” (CORNELL UNIVERSITY, priority 2017, dated 2021)
Values joined by “and” are separate entries in the source; they are usually repeats but may differ in a detail not shown here. Identical values can stand only once.

target: Mtb20SOG (Mycobacterium tuberculosis, UniProt P9WHT9); experiment: biochemical; conditions: not given
Sequence (P9WHT9 58-291): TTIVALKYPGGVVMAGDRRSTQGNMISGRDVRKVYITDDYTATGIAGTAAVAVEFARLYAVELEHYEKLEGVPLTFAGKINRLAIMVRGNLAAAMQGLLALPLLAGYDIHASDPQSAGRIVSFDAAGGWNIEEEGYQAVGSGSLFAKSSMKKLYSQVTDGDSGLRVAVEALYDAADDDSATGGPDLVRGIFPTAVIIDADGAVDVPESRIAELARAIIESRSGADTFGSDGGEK

SMILES	IC50
CC[C@H]1CCCCN1C(=O)C[C@H](NC(=O)CCC(C)C)C(=O)N[C@@H](C)c1nc2c(F)cccc2[nH]1 [CF-503223]	0.028 µM and 0.033 µM
CC(C)CCC(=O)N[C@@H](CC(=O)N1CCC[C@@H]1c1ccccc1)C(=O)N[C@@H](C)c1nc2ccccc2[nH]1 [CF-503150]	0.047 µM and 0.045 µM and 0.05 µM and 0.069 µM and 0.059 µM and 0.042 µM
CC[C@H]1CCCCN1C(=O)C[C@H](NC(=O)C1CC2(CCC2)C1)C(=O)N[C@@H](C)c1nc2c(F)cccc2[nH]1 [CF-503458]	0.007 µM and 0.011 µM
Cc1cc(C(=O)N[C@@H](CC(=O)N2CCC[C@@H]2c2ccccc2)C(=O)N[C@@H](C)c2ncc(-c3ccccc3F)[nH]2)no1 [CF-503108]	0.013 µM
C[C@H](NC(=O)[C@H](CC(=O)N1CCCC1)NC(=O)CCc1ccccc1)C(=O)NCc1cccc2cn[nH]c12 [CF-503390]	0.121 µM and 0.088 µM
CC(NC(=O)C(CC(=O)N1CCCCC1C)NC(=O)C1CC2(CCC2)C1)c1nc2c(F)cccc2[nH]1 (centres unmarked) [CF-503459]	0.013 µM and 0.02 µM

same assay, conditions: Table 2; several values in a cell are repeat determinations

SMILES	IC50 [µM]
C[C@H](NC(=O)[C@H](CC(=O)N1CCCC[C@@H]1C)NC(=O)[C@H]1C[C@@H]1c1ccccc1)c1nc2c(F)cccc2[nH]1 [drawing 477]	0.166

target: Human Constitutive (Hu C-20S) β5 Active Subunit (Homo sapiens, UniProt P28074); experiment: IC50 determination, human constitutive 20S proteasome β5c (suc-LLVY-AMC hydrolysis); assay type: biochemical; conditions: Table 2; several values in a cell are repeat determinations; read-out: Hu c-20S IC50

SMILES	IC50
CC[C@H]1CCCCN1C(=O)C[C@H](NC(=O)CCC(C)C)C(=O)N[C@@H](C)c1nc2c(F)cccc2[nH]1 [CF-503223]	10.6 µM and 10.2 µM

same assay, conditions: Table 3; IC50 against human constitutive β5 active subunit; read-out: Hu-C20S β5

SMILES	IC50 [µM]
Cc1cc(C(=O)N[C@@H](CC(=O)N2CCCC[C@@H]2C)C(=O)NC(C)c2nc3ccccc3[nH]2)no1 (stereo partly drawn) [CEN-35, N-((2S)-1-((1-(1H-Benzo[d]imidazol-2-yl)ethyl)amino)-4-((S)-2-methylpiperidin-1-yl)-1,4-dioxobutan-2-yl)-5-methylisoxazole-3-carboxamide]	19.6
Cc1cc(C(=O)N[C@@H](CC(=O)N2CCCC[C@@H]2C)C(=O)N[C@@H](C)c2ncc(-c3ccc(F)cc3)[nH]2)no1 [CEN-119, N—((S)-1-(((S)-1-(5-(4-Fluorophenyl)-1H-imidazol-2-yl)ethyl)amino)-4-((S)-2-methylpiperidin-1-yl)-1,4-dioxobutan-2-yl)-5-methylisoxazole-3-carboxamide]	18
C[C@H](NC(=O)[C@H](CC(=O)N1CCCC[C@@H]1C)NC(=O)CC1CC1)c1ncc(-c2ccc(F)cc2F)[nH]1 [CEN-81, (S)-2-(2-Cyclopropylacetamido)-N—((S)-1-(5-(2,4-difluorophenyl)-1H-imidazol-2-yl)ethyl)-4-((S)-2-methylpiperidin-1-yl)-4-oxobutanamide]	10.5
C[C@H](NC(=O)[C@H](CC(=O)N1CCC[C@@H]1c1ccccc1)NC(=O)CCCC(F)(F)F)c1nc2ccccc2n1C [CEN-65, 5,5,5-Trifluoro-N—((S)-1-(((S)-1-(1-methyl-1H-benzo[d]imidazol-2-yl)ethyl)amino)-1,4-dioxo-4-((R)-2-phenylpyrrolidin-1-yl)butan-2-yl)pentanamide]	> 100
C[C@H](NC(=O)[C@@H](N)CC(=O)N1CCC[C@@H]1c1ccccc1)c1ncc(-c2ccccc2F)[nH]1 [CEN-74, (S)-2-Amino-N—((S)-1-(5-(2-fluorophenyl)-1H-imidazol-2-yl)ethyl)-4-oxo-4-((R)-2-phenylpyrrolidin-1-yl)butanamide]	94
CC[C@H]1CCCCN1C(=O)C[C@H](NC(=O)CC1CC1)C(=O)N[C@@H](C)c1nc2c(F)cccc2[nH]1 [CEN-2, (S)-2-(2-Cyclopropylacetamido)-4-((S)-2-ethylpiperidin-1-yl)-N—((S)-1-(4-fluoro-1H-benzo[d]imidazol-2-yl)ethyl)-4-oxobutanamide]	16.9
C[C@H](NC(=O)[C@H](CC(=O)N1CCCC[C@@H]1C)NC(=O)C1CC2(COC2)C1)c1nc2cccc(F)c2[nH]1 [CEN-43, N—((S)-1-(((S)-1-(7-Fluoro-1H-benzo[d]imidazol-2-yl)ethyl)amino)-4-((S)-2-methylpiperidin-1-yl)-1,4-dioxobutan-2-yl)-2-oxaspiro[3.3]heptane-6-carboxamide]	13.8
CC[C@H]1CCCCN1C(=O)C[C@H](NC(=O)C1CC2(CCC2)C1)C(=O)N[C@@H](C)c1nc2c(F)cccc2[nH]1 [CEN-17, N—((S)-4-((S)-2-Ethylpiperidin-1-yl)-1-(((S)-1-(4-fluoro-1H-benzo[d]imidazol-2-yl)ethyl)amino)-1,4-dioxobutan-2-yl)spiro[3.3]heptane-2-carboxamide]	13.4
CC[C@H]1CCCCN1C(=O)C[C@H](Nc1nc2ccc(C)cc2o1)C(=O)N[C@@H](C)c1nc2c(F)cccc2[nH]1 [CEN-19, (S)-4-((S)-2-Ethylpiperidin-1-yl)-N—((S)-1-(4-fluoro-1H-benzo[d]imidazol-2-yl)ethyl)-2-((6-methylbenzo[d]oxazol-2-yl)amino)-4-oxobutanamide]	1.1
CC[C@H]1CCCCN1C(=O)C[C@H](NC(=O)c1cnc(C)s1)C(=O)N[C@@H](C)c1nc2c(F)cccc2[nH]1 [CEN-18, N—((S)-4-((S)-2-Ethylpiperidin-1-yl)-1-(((S)-1-(4-fluoro-1H-benzo[d]imidazol-2-yl)ethyl)amino)-1,4-dioxobutan-2-yl)-2-methylthiazole-5-carboxamide]	9.5
Cc1ncc(C(=O)N[C@@H](CC(=O)N2CCCC[C@@H]2C)C(=O)N[C@@H](C)c2nc3c(F)cccc3[nH]2)s1 [CEN-30, N—((S)-1-(((S)-1-(4-Fluoro-1H-benzo[d]Imidazol-2-yl)ethyl)amino)-4-((S)-2-methylpiperidin-1-yl)-1,4-dioxobutan-2-yl)-2-methylthiazole-5-carboxamide]	4.5
C[C@H](NC(=O)[C@H](CC(=O)N1CCC[C@@H]1C)NC(=O)CCC(C)(C)C)c1ncc(-c2ccc(F)cc2F)[nH]1 [CEN-89, N—((S)-1-(((S)-1-(5-(2,4-Difluorophenyl)-1H-imidazol-2-yl)ethyl)amino)-4-((S)-2-methylpyrrolidin-1-yl)-1,4-dioxobutan-2-yl)-4,4-dimethylpentanamide]	5.7
CC[C@H]1CCCCN1C(=O)C[C@H](NC(=O)CCC(C)(C)C)C(=O)N[C@@H](C)c1nc2ccccc2[nH]1 [CEN-29, N—((S)-1-(((S)-1-(1H-Benzo[d]imidazol-2-yl)ethyl)amino)-4-((S)-2-ethylpiperidin-1-yl)-1,4-dioxobutan-2-yl)-4,4-dimethylpentanamide]	6.9
C[C@H](NC(=O)[C@H](CC(=O)N1CCCC[C@@H]1C)NC(=O)CCC(C)(C)C)c1nc2c(F)cccc2[nH]1 [CEN-41, N—((S)-1-(((S)-1-(4-Fluoro-1H-benzo[d]Imidazol-2-yl)ethyl)amino)-4-((S)-2-methylpiperidin-1-yl)-1,4-dioxobutan-2-yl)-4,4-dimethylpentanamide]	4.8
C[C@H](NC(=O)[C@H](CC(=O)N1CCCC[C@@H]1C)NC(=O)c1cncs1)c1ncc(-c2ccc(F)cc2F)[nH]1 [CEN-98, N—((S)-1-(((S)-1-(5-(2,4-Difluorophenyl)-1H-imidazol-2-yl)ethyl)amino)-4-((S)-2-methylpiperidin-1-yl)-1,4-dioxobutan-2-yl)thiazole-5-carboxamide]	7.1
CC(C)CCC(=O)N[C@@H](CC(=O)N1CCCC[C@H]1C)C(=O)N[C@@H](C)c1ncc(-c2ccc(F)cc2F)[nH]1 [CEN-91, N—((S)-1-(((S)-1-(5-(2,4-Difluorophenyl)-1H-imidazol-2-yl)ethyl)amino)-4-((R)-2-methylpiperidin-1-yl)-1,4-dioxobutan-2-yl)-4-methylpentanamide]	10.5
CC(C)CCC(=O)N[C@@H](CC(=O)N(C)C(C)C)C(=O)N[C@@H](C)c1ncc(-c2ccc(F)cc2F)[nH]1 [CEN-78, (S)—N1-((S)-1-(5-(2,4-Difluorophenyl)-1H-imidazol-2-yl)ethyl)-N4-isopropyl-N4-methyl-2-(4-methylpentanamido)succinamide]	14.9
C[C@H](NC(=O)[C@H](CC(=O)N1CCCC1C1CC1)NC(=O)C1CC2(C1)CC(F)(F)C2)c1nc2cccc(F)c2[nH]1 (stereo partly drawn) [CEN-61, N-((2S)-4-(2-Cyclopropylpyrrolidin-1-yl)-1-(((S)-1-(7-fluoro-1H-benzo[d]imidazol-2-yl)ethyl)amino)-1,4-dioxobutan-2-yl)-6,6-difluorospiro[3.3]heptane-2-carboxamide]	8.8
CC[C@H]1CCCCN1C(=O)C[C@H](Nc1nc(Cc2ccc(F)cc2)no1)C(=O)N[C@@H](C)c1nc2c(F)cccc2[nH]1 [CEN-27, (S)-4-((S)-2-Ethylpiperidin-1-yl)-N—((S)-1-(4-fluoro-1H-benzo[d]imidazol-2-yl)ethyl)-2-((3-(4-fluorobenzyl)-1,2,4-oxadiazol-5-yl)amino)-4-oxobutanamide]	1.4
CC(C)CCS(=O)(=O)N[C@@H](CC(=O)N1CCC[C@@H]1c1ccccc1)C(=O)NC(C)c1nc2ccccc2[nH]1 (stereo partly drawn) [CEN-58, (2S)—N-(1-(1H-Benzo[d]imidazol-2-yl)ethyl)-2-((3-methylbutyl)sulfonamido)-4-oxo-4-((R)-2-phenylpyrrolidin-1-yl)butanamide]	13.9
CCN(CC)C(=O)C[C@H](NC(=O)CCC(C)C)C(=O)N[C@@H](C)c1ncc(-c2ccc(F)cc2F)[nH]1 [CEN-79, (S)—N1-((S)-1-(5-(2,4-Difluorophenyl)-1H-imidazol-2-yl)ethyl)-N4,N4-diethyl-2-(4-methylpentanamido)succinamide]	7.3
C[C@@H](NC(=O)[C@H](CC(=O)N1CCCC[C@@H]1C)NC(=O)CC1CC(C)(C)C1)c1nc2c(F)cccc2[nH]1 [CEN-44, (S)-2-(2-(3,3-Dimethylcyclobutyl)acetamido)-N—((R)-1-(4-fluoro-1H-benzo[d]imidazol-2-yl)ethyl)-4-((S)-2-methylpiperidin-1-yl)-4-oxobutanamide]	0.9
C[C@H](NC(=O)[C@H](CC(=O)N1CCCC[C@@H]1C)NS(=O)(=O)CCC1CC1)c1ncc(-c2ccc(F)cc2F)[nH]1 [CEN-108, (S)-2-((2-Cyclopropylethyl)sulfonamido)-N—((S)-1-(5-(2,4-difluorophenyl)-1H-imidazol-2-yl)ethyl)-4-((S)-2-methylpiperidin-1-yl)-4-oxobutanamide]	6.2
CC[C@H]1CCCCN1C(=O)C[C@H](N)C(=O)N[C@@H](C)c1nc2c(F)cccc2[nH]1 [CEN-1, (S)-2-Amino-4-((S)-2-ethylpiperidin-1-yl)-N—((S)-1-(4-fluoro-1H-benzo[d]imidazol-2-yl)ethyl)-4-oxobutanamide]	14.2
